Data reported in the supplement of paper PMC10307832.

Key:
Experiment in all cases: relative viability (nuclei count vs DMSO), 5 days (fraction); higher = more cells survive
Cediranib + Luminespib = compound: COc1cc2c(Oc3ccc4[nH]c(C)cc4c3F)ncnc2cc1OCCCN1CCCC1 [Cediranib] + CCNC(=O)c1noc(-c2cc(C(C)C)c(O)cc2O)c1-c1ccc(CN2CCOCC2)cc1 [Luminespib] (partner 0.01 µM)
Outline: (§1)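 Lung cancer cell lines were seeded in 1536-well plates and dosed by pin tool the next day, with either a single drug or a fixed anchor-drug dose combined with five library-drug doses (not always all listed) spaced in √10 steps. Five days later, one step fixed the cells and stained their nuclei (final 0.05% Triton X-100, 1% formaldehyde, 1 ug/ml Hoechst), and nuclei were counted on 4× images. Relative viability is the nuclei count in treated wells divided by the count in vehicle wells, and each value is the median of duplicate plates.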

Decitabine + Tozasertib = compound: Nc1ncn([C@H]2C[C@H](O)[C@@H](CO)O2)c(=O)n1 [Decitabine] + Cc1cc(Nc2cc(N3CCN(C)CC3)nc(Sc3ccc(NC(=O)C4CC4)cc3)n2)n[nH]1 [Tozasertib] (partner 0.1 µM)
Outline: as §1

Decitabine + Navitoclax = compound: Nc1ncn([C@H]2C[C@H](O)[C@@H](CO)O2)c(=O)n1 [Decitabine] + CC1(C)CCC(c2ccc(Cl)cc2)=C(CN2CCN(c3ccc(C(=O)NS(=O)(=O)c4ccc(N[C@H](CCN5CCOCC5)CSc5ccccc5)c(S(=O)(=O)C(F)(F)F)c4)cc3)CC2)C1 [Navitoclax] (partner 0.5 µM)
Outline: as §1

Cediranib + Pictilisib = compound: COc1cc2c(Oc3ccc4[nH]c(C)cc4c3F)ncnc2cc1OCCCN1CCCC1 [Cediranib] + CS(=O)(=O)N1CCN(Cc2cc3nc(-c4cccc5[nH]ncc45)nc(N4CCOCC4)c3s2)CC1 [Pictilisib] (partner 1 µM)
Outline: as §1

| Cell Line | relative viability (Cediranib + Luminespib; first compound 0.04 µM) | relative viability (Cediranib + Luminespib; first compound 0.1265 µM) | relative viability (Cediranib + Luminespib; first compound 0.4 µM) | relative viability (Cediranib + Luminespib; first compound 1.265 µM) | relative viability (Cediranib + Luminespib; first compound 4 µM) | relative viability (Decitabine + Tozasertib; first compound 0.04 µM) | relative viability (Decitabine + Tozasertib; first compound 0.1265 µM) | relative viability (Decitabine + Tozasertib; first compound 0.4 µM) | relative viability (Decitabine + Tozasertib; first compound 4 µM) | relative viability (Decitabine + Navitoclax; first compound 0.04 µM) | relative viability (Decitabine + Navitoclax; first compound 0.1265 µM) | relative viability (Decitabine + Navitoclax; first compound 0.4 µM) | relative viability (Decitabine + Navitoclax; first compound 1.265 µM) | relative viability (Decitabine + Navitoclax; first compound 4 µM) | relative viability (Cediranib + Pictilisib; first compound 0.04 µM) | relative viability (Cediranib + Pictilisib; first compound 0.1265 µM) | relative viability (Cediranib + Pictilisib; first compound 0.4 µM) | relative viability (Cediranib + Pictilisib; first compound 1.265 µM) | relative viability (Cediranib + Pictilisib; first compound 4 µM) | relative viability (Decitabine + Tozasertib; first compound 1.265 µM) |
| --- | --- | --- | --- | --- | --- | --- | --- | --- | --- | --- | --- | --- | --- | --- | --- | --- | --- | --- | --- | --- |
| 201T | 1.2 | 1.34 | 1 | 1.03 | 1.03 | 0.742 | 0.776 | 0.909 | 0.587 | 1.16 | 1.14 | 1.27 | 1.13 | 1.1 | 0.725 | 0.699 | 0.639 | 0.632 | 0.7 | – |
| A549 | – | – | – | – | – | – | – | – | – | 0.929 | 0.875 | 0.331 | 0.117 | 0.077 | 0.538 | 0.628 | 0.485 | 0.477 | 0.532 | – |
| A-427 | 1.25 | – | 0.84 | 0.906 | 0.928 | 0.195 | 0.136 | 0.118 | 0.135 | 0.674 | 0.578 | 0.365 | 0.255 | 0.191 | 0.716 | – | 0.608 | 0.573 | 0.707 | 0.123 |
| ABC-1 | 0.885 | 0.714 | – | 0.44 | 0.486 | 0.211 | 0.185 | 0.174 | 0.21 | – | – | – | – | – | 0.786 | 0.566 | 0.69 | – | 0.737 | 0.195 |
| BEN | 0.379 | – | 0.338 | 0.201 | 0.381 | 0.443 | 0.454 | 0.421 | 0.355 | 0.0613 | 0.0587 | 0.0516 | 0.0522 | 0.0591 | 0.584 | 0.497 | 0.509 | 0.425 | 0.504 | 0.371 |
| CAL-12T | 0.242 | 0.369 | 0.364 | 0.359 | 0.361 | 0.292 | 0.268 | – | 0.219 | 1.02 | 0.867 | 0.752 | 0.627 | 0.497 | 0.431 | – | 0.438 | 0.319 | 0.501 | 0.21 |
| COR-L23 | 0.778 | 0.768 | 0.58 | 0.571 | 0.626 | 0.134 | 0.158 | 0.158 | 0.128 | 0.577 | 0.478 | 0.382 | 0.294 | 0.207 | 0.75 | 0.821 | 0.775 | 0.501 | 0.783 | 0.123 |
| COR-L 105 | 0.706 | 0.726 | 0.731 | 0.864 | 0.68 | 0.378 | 0.336 | 0.36 | 0.237 | 0.539 | 0.534 | 0.437 | 0.318 | 0.316 | – | 0.434 | 0.332 | 0.376 | 0.403 | 0.365 |
| Calu-6 | – | – | – | – | – | – | – | – | – | 0.6 | 0.457 | 0.302 | 0.277 | 0.207 | 0.97 | 0.985 | 0.931 | 0.824 | 1.13 | – |
| ChaGo-K-1 | 0.588 | 0.621 | 0.525 | 0.638 | 0.738 | 0.23 | 0.238 | 0.189 | 0.208 | 0.681 | 0.762 | 0.479 | 0.611 | 0.565 | 0.805 | – | 0.7 | 0.852 | 0.639 | 0.176 |
| EBC-1 | – | – | – | – | – | – | – | – | – | 0.21 | 0.257 | 0.2 | 0.178 | 0.15 | 0.417 | 0.516 | 0.402 | 0.407 | 0.467 | – |
| EKVX | 0.965 | 0.969 | 0.822 | 0.742 | 0.995 | 0.283 | 0.266 | 0.247 | 0.148 | 0.75 | 0.809 | 0.561 | 0.365 | 0.347 | 0.408 | 0.563 | 0.427 | 0.487 | 0.383 | 0.166 |
| EMC-BAC-2 | 1.15 | 1.3 | 1.13 | 1.18 | 1.16 | 0.274 | 0.266 | 0.27 | 0.271 | 1.08 | 1.12 | 0.773 | 0.705 | 0.605 | 0.568 | 0.54 | 0.538 | 0.443 | 0.555 | 0.251 |
| EPLC-272H | 0.32 | – | 0.243 | – | 0.228 | – | 0.307 | 0.0586 | 0.157 | 0.734 | 0.658 | – | 0.426 | 0.413 | 0.322 | – | 0.346 | 0.305 | 0.248 | 0.26 |
| H3255 | 0.83 | – | 0.879 | 0.709 | 0.992 | – | 0.633 | 0.524 | 0.431 | 0.201 | 0.331 | 0.353 | 0.328 | 0.276 | 0.533 | 0.525 | 0.409 | 0.494 | 0.446 | 0.506 |
| HARA | 0.822 | – | 0.528 | 0.775 | 1.09 | 0.0975 | 0.0855 | 0.0556 | 0.0747 | 0.9 | 0.66 | 0.568 | 0.512 | 0.399 | 0.269 | 0.684 | 0.393 | 0.481 | 0.37 | 0.078 |
